{"source": "ChEMBL document CHEMBL1201862", "about": "“PubChem BioAssay data set” (2004)", "key": {"[1]": {"molecular_target": "Mitochondrial peptide methionine sulfoxide reductase (Bos taurus, UniProt P54149)", "sequence (P54149 whole entry)": "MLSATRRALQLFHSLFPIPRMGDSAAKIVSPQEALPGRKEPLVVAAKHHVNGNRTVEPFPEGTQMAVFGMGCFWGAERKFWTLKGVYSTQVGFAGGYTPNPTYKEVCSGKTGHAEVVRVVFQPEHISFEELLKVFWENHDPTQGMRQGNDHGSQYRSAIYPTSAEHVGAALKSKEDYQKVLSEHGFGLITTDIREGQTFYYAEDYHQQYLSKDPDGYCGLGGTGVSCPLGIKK", "assay_type": "functional"}, "[2]": {"molecular_target": "T1, Alkaline phosphatase, tissue-nonspecific isozyme (Homo sapiens, UniProt P05186)", "T1 sequence (P05186 whole entry)": "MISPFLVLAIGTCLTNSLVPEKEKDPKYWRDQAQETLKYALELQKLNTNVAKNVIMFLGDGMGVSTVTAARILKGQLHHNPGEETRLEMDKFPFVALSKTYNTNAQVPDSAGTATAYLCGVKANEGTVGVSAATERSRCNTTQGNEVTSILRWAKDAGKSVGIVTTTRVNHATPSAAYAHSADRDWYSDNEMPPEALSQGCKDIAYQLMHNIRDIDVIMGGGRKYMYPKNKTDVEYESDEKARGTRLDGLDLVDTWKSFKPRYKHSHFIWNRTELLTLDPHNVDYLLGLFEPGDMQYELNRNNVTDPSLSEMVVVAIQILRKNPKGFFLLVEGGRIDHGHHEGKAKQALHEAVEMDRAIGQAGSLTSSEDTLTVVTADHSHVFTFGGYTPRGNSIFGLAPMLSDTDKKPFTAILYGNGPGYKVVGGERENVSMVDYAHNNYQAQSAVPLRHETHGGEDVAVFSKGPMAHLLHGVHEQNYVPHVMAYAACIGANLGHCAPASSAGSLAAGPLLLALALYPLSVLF"}, "[3]": {"molecular_target": "Voltage-gated N-type calcium channel alpha-1B subunit/Amyloid beta A4 precursor protein-binding family A member 1 (Homo sapiens, UniProt Q00975+Q02410)", "sequence (Q00975 whole entry)": "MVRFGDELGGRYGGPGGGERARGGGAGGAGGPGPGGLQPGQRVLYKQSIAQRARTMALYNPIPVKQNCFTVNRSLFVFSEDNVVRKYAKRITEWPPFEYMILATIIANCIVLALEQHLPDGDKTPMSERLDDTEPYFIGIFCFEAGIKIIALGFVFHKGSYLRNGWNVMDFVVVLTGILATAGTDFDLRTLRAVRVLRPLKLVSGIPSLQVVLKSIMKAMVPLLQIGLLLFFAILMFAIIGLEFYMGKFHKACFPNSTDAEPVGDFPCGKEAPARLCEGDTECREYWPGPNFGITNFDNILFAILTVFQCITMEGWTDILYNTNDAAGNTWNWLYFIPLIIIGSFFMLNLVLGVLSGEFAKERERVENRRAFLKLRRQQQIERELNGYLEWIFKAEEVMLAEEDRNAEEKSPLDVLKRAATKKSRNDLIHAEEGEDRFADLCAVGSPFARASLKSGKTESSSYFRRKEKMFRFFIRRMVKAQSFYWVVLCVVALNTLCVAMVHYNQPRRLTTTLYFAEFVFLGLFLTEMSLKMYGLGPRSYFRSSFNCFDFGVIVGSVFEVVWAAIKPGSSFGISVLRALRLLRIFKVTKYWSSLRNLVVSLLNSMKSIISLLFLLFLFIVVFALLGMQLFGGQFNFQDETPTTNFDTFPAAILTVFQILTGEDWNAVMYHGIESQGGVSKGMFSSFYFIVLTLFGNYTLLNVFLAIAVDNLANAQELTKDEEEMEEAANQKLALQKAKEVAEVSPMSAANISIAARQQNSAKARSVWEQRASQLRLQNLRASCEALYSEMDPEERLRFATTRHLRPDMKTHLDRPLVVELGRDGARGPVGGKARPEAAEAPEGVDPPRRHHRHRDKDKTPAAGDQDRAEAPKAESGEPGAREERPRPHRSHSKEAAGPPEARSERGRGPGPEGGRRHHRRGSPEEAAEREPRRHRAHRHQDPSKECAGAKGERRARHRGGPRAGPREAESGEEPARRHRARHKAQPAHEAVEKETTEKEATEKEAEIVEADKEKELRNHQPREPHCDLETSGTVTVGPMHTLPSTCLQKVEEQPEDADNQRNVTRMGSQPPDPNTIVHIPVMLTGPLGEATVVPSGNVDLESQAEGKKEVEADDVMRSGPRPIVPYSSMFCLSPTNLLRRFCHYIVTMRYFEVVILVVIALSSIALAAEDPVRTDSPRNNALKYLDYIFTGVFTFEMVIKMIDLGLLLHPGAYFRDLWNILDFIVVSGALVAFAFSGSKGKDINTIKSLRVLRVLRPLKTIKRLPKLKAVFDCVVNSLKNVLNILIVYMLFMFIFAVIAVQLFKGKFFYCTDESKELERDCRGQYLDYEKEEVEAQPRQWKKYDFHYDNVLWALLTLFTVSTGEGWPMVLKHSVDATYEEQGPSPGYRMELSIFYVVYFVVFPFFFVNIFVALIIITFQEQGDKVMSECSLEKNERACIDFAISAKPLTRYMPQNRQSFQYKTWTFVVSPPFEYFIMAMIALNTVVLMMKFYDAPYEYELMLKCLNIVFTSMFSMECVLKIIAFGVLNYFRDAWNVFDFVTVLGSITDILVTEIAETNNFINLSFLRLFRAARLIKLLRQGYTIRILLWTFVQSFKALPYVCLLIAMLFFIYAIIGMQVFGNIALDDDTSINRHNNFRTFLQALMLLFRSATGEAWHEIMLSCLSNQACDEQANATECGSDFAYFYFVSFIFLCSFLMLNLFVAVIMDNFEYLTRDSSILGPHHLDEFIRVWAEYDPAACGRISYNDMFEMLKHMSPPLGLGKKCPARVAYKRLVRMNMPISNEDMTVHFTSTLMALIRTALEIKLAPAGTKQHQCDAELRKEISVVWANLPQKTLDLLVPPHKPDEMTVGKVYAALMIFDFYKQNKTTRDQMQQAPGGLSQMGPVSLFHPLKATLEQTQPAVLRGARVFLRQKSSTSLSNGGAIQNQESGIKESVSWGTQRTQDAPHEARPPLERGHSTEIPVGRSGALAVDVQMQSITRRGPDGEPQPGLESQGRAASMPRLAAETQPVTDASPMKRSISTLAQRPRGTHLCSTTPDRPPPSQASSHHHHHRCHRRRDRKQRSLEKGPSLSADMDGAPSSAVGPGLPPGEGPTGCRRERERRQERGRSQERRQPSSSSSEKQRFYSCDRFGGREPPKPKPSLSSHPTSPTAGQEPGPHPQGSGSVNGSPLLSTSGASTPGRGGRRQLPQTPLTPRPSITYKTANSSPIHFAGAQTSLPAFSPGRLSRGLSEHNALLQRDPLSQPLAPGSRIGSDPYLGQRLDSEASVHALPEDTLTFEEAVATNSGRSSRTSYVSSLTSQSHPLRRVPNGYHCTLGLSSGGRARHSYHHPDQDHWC", "sequence (Q02410 whole entry)": "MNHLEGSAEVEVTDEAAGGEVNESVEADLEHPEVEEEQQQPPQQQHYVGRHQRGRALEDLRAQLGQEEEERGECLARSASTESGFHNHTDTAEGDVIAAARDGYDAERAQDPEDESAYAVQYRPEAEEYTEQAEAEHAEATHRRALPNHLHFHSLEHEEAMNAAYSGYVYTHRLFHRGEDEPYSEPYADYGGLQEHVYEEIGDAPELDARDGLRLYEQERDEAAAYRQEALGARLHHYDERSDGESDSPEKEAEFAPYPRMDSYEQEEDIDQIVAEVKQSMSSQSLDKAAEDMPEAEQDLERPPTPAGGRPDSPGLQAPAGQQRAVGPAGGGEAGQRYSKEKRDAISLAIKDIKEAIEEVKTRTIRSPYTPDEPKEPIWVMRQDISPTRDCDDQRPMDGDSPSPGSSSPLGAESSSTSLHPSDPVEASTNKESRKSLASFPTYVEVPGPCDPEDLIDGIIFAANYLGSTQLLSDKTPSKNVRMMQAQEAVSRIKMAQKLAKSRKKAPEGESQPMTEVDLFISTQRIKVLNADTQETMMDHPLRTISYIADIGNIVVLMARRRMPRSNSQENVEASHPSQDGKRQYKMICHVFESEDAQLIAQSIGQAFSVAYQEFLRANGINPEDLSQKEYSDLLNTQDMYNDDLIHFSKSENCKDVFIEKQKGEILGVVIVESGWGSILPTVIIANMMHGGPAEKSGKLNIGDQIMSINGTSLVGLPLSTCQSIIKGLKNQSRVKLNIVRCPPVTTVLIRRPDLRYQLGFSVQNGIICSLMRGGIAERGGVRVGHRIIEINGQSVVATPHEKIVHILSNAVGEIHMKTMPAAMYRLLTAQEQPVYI", "assay_type": "protein assay"}, "CHO-K1": {"tested_on": "CHO-K1", "assay": "(§1) Counterscreen for antagonists of the orexin 1 receptor (OX1R; HCRTR1): Homogeneous time resolved fluorescence (HTRF)-based cell-based dose response assay to identify antagonists of the parental CHO-K1 cell line. [Related pubchem assays (depositor defined):AID434989, AID435008, AID463079, AID485270, AID492963, AID492964, AID492965, AID493232, AID504699, AID504701]", "assay_type": "functional", "details": "Cricetulus griseus"}, "[4]": {"assay": "as §1, with “Fluorescence-based” for “Homogeneous time resolved fluorescence (HTRF)-based”, “cell-based high throughput” for “cell-based”, “CHO” for “CHO-K1”", "assay_type": "functional"}, "[5]": {"molecular_target": "T2, Orexin/Hypocretin receptor type 1 (Homo sapiens, UniProt O43613)", "T2 sequence (O43613 whole entry)": "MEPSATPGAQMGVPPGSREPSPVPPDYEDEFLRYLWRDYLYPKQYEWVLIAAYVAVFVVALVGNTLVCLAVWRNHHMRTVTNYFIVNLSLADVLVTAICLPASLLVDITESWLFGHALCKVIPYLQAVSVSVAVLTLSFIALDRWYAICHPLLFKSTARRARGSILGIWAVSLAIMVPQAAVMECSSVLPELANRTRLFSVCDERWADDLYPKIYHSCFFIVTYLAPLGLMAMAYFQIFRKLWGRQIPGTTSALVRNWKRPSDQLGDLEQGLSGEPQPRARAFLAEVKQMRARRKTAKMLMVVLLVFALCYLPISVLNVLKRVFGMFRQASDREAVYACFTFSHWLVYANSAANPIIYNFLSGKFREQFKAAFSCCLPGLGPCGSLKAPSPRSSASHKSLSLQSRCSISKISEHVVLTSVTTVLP", "assay": "Homogeneous Time Resolved Fluorescence (HTRF)-based cell-based high throughput dose response assay for antagonists of the orexin 1 receptor (OX1R; HCRTR1). [Related pubchem assays (depositor defined):AID434989, AID435008, AID463079, AID485270, AID492963, AID492964, AID492965, AID493232, AID504717, AID504718]", "assay_type": "functional"}, "[6]": {"molecular_target": "T2, Orexin/Hypocretin receptor type 1", "assay": "Fluorescence-based cell-based high throughput dose response assay for antagonists of the orexin 1 receptor (OX1R; HCRTR1). [Related pubchem assays (depositor defined):AID434989, AID435008, AID463079, AID485270, AID492963, AID492964, AID492965, AID493232, AID504717, AID504718]", "assay_type": "functional"}, "Orexin receptor type 2 [7]": {"molecular_target": "T3, Orexin receptor type 2 (Homo sapiens, UniProt O43614)", "T3 sequence (O43614 whole entry)": "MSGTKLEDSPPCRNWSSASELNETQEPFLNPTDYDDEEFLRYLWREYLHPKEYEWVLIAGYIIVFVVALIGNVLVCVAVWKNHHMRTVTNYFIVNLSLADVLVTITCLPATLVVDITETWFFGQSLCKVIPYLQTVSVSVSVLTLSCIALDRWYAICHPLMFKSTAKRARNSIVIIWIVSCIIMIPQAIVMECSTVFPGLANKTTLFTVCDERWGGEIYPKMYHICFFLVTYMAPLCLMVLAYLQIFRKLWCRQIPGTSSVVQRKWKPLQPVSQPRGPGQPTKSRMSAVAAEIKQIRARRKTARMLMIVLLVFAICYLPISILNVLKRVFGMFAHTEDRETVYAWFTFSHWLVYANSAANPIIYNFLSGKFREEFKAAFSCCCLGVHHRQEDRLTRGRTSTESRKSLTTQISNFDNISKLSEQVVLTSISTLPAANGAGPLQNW", "assay": "Counterscreen assay for antagonists of the orexin 1 receptor (OX1R; HCRTR1): Fluorescence-based cell-based dose response assay for antagonists of the orexin 2 receptor (OX2R; HCRTR2), run by assay provider.", "assay_type": "functional"}, "Orexin receptor type 2 [8]": {"molecular_target": "T3, Orexin receptor type 2", "assay": "Counterscreen assay for antagonists of the orexin 1 receptor (OX1R; HCRTR1): Homogeneous Time Resolved Fluorescence (HTRF)-based cell-based dose response assay for antagonists of the orexin 2 receptor (OX2R; HCRTR2), run by assay provider.", "assay_type": "functional"}, "[9]": {"molecular_target": "T4, Apoptotic protease-activating factor 1 (Homo sapiens, UniProt O14727)", "T4 sequence (O14727 whole entry)": "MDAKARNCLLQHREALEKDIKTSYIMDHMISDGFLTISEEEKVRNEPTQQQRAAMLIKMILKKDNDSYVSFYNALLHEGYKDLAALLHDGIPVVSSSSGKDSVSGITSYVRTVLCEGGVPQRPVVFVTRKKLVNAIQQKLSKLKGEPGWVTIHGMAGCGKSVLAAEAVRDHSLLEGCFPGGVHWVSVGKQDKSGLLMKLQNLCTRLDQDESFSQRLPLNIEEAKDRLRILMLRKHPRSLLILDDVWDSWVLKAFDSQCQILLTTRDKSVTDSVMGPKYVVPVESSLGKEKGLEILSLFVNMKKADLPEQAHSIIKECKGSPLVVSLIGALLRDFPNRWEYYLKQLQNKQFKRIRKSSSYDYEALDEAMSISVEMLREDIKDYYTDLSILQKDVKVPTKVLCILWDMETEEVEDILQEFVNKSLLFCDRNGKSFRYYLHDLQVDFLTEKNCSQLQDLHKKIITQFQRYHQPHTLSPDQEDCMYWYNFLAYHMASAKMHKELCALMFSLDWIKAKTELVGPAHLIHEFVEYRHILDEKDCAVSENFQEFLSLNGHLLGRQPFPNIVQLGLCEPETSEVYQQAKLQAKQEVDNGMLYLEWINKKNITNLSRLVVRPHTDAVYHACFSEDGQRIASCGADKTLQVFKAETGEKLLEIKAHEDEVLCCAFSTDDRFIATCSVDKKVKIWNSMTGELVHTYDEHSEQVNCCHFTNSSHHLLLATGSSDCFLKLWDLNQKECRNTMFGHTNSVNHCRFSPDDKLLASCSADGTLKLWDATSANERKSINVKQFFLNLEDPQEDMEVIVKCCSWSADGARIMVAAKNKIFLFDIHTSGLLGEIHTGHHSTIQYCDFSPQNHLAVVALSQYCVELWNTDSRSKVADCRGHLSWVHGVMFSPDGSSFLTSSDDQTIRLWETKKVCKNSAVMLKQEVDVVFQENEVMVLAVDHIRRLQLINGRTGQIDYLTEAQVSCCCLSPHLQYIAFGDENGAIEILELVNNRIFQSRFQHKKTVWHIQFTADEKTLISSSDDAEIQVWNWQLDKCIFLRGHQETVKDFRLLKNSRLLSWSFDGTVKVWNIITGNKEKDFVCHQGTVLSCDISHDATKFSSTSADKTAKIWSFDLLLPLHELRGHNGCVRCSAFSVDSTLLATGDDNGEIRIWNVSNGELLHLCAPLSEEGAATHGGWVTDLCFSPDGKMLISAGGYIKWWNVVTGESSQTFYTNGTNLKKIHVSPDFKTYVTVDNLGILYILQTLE", "assay": "SAR analysis of small molecule Activators of Apaf-1 in a Fluorescent assay.", "assay_type": "functional", "details": "read-out: EC50_Mean"}, "[10]": {"assay": "bead-based luminescence quenchers, dual-tagged ARNT – biochemical, AlphaScreen, cherry-pick, artefact control for ARNT-TACC3 interaction inhibitor project, dose response (AID 651705)", "assay_type": "functional"}}, "note": "Active and inactive are the calls of the source.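 For AC50 in this document: AlphaScreen bead proximity signal that flags compounds interfering with the detection technology; potency reflects signal decrease which marks the compound as an assay artifact.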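 For EC50 Mean in this document: caspase-3 cleavage of fluorogenic Rh110 DEVD substrate downstream of apoptosome activation.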"}
{"smiles": "O=C(NCc1cccnc1)c1ccc(=O)oc1", "values": [{"measurement": "IC50", "setting": "[1]", "value": "140 µM (inactive)"}]}
{"smiles": "CCN(CC)c1ccc(NC(=O)Cn2c(C(C)NC(=O)c3ccccc3)nc3ccccc32)cc1", "note": "(stereo unspecified)", "values": [{"measurement": "EC50", "setting": "[2]", "value": "> 100 µM (not active)"}, {"measurement": "IC50", "setting": "[3]", "value": "> 50 µM (inactive)"}, {"measurement": "IC50", "setting": "CHO-K1", "value": "> 66.2 µM (inactive)"}, {"measurement": "IC50", "setting": "[4]", "value": "> 49.7 µM (inactive)"}, {"measurement": "IC50", "setting": "[5]", "value": "106 nM (active)"}, {"measurement": "IC50", "setting": "[6]", "value": "382 nM (active)"}, {"measurement": "IC50", "setting": "Orexin receptor type 2 [7]", "value": "> 88.8 µM (inactive)"}, {"measurement": "IC50", "setting": "Orexin receptor type 2 [8]", "value": "> 50 µM (inactive)"}]}
{"smiles": "COC(=O)c1coc(-c2cc3ccccc3s2)n1", "values": [{"measurement": "EC50", "setting": "[9]", "value": "> 100 µM (inactive)"}]}
{"smiles": "C[C@@H]1CN([C@@H](C)CO)C(=O)c2cc(NC(=O)CCCN(C)C)ccc2O[C@@H](C)CCCCO[C@H]1CN(C)C(=O)Nc1cccc2ccccc12", "values": [{"measurement": "AC50", "setting": "[10]", "value": "74.8 µM (active)"}]}
